# Experiments:
# [1] = tested on: mitochondrial ROS; test: In situ mitochondrial ROS production in retina after partial ONC (MitoNeoD dye); format: in vivo, thirteen lined ground squirrel (TLGS); settings: active TLGSs with ONC; intraocular injection
# Text: (§1) It is known in the art that a key event in the LPS-induced macrophage activation is the over-production of mitochondrial ROS driven by the hyperpolarization of mitochondrial membrane potential and SDH-accelerated succinate oxidation (Mills et al., 2016). However, for the retina, it is challenging to perform live ROS measurement, because enucleation causes an acute ROS surge due to severing of the optic nerve. Thus, a method was developed to visualize in situ mitochondrial ROS production in thirteen lined ground squirrel (TLGS) retina with optic nerve crush (ONC), that used a mitochondrial ROS dye—MitoNeoD (Shchepinova et al., 2017). […] In active TLGS retina with partial ONC injuries, it was observed that above the optic nerve fiber/RGC layers there were cells decorated with bright MitoNeoOH (oxidized and fluorescent form of MitoNeoD) signals (arrows in FIG. 6D) overlapping with a mitochondrial protein marker (TOM20) (FIGS. 7A, 7B, and 7C). These cells were then confirmed to be mostly microglial cells (FIGS. 7D, 7E, and 7F). It was then confirmed that intraocular injection of DMM indeed lowered SDH activity in the retina of ONC-injured active TLGSs (FIG. 8B).
# [2] = tested on: succinate dehydrogenase (SDH); test: SDH activity in the retina of ONC-injured active TLGSs; format: in vivo, thirteen lined ground squirrel (TLGS); settings: intraocular injection
# Text: as §1
# [3] = tested on: microglia cell line (BV2); test: LPS-induced pro-inflammatory cytokine production in a microglia cell line; format: cell-based, mouse
# Text: The direct effect of DMM on microglia was examined by conducting an in vitro experiment using a microglia cell line (BV2).
# as §1
# [4] = tested on: retina ganglion cells (RGCs); test: Optic nerve crush (ONC), retina ganglion cell survival; format: in vivo, ground squirrel; settings: awake animals; injected into the eye before and after the ONC surgery
# Text: Previous work has shown that succinate regulates macrophages, causing them to switch between pro-inflammatory and anti-inflammatory states (Mills, et al., (2016) Succinate Dehydrogenase Supports Metabolic Repurposing of Mitochondria to Drive Inflammatory Macrophages. Cell, […]; 457-470.e13). Thus, the inventors hypothesized that immune regulation due to reduced succinate levels may occur in the retina during hibernation, and that this may subsequently affect cellular response to neural injury. To test this hypothesis, optic nerve crush (ONC), a classic axonal injury experiment, was performed in awake and in hibernating ground squirrels. Retina ganglion cells (RGCs) appeared to survive ONC during hibernation (FIG. 4). Intriguingly, a key cellular response difference between awake and hibernating animals to ONC is microglial aggregation and activation, in line with the hypothesis that low succinate level during hibernation may prevent microglia from activation in response to injury. To further test this hypothesis, a second experiment was done in which dimethyl malonate (DMM), an inhibitor of SDH, was injected into the eye before and after the ONC surgery in awake animals to create a lower succinate condition, thereby mimicking hibernation. […] To further examine the role of microglia, microglia were pharmacologically eliminated before ONC surgery in awake animals. […]
# [5] = cultured microglial cells, 100 ng/ml LPS + 1 mM or 10 mM DMM
# [6] = mouse BV-2, concentration not given
compound,measurement,setting,value
"COC(=O)CC(=O)OC [DMM, dimethyl malonate]",mitochondrial ROS production,[1],significantly alleviated
same,SDH activity in the retina,[2],lowered
same,response of microglia to LPS,"[3]; BV2, DMM 1 or 10 mM",significantly attenuated
same,production of IL1A,[3]; [5],significantly reduced
same,production of MCP-1,[3]; [5],significantly reduced
same,LPS-induced production of IL-1α,[3]; [6],effectively reduced
same,LPS-induced production of IL-6,[3]; [6],effectively reduced
same,LPS-induced production of MCP-1,[3]; [6],effectively reduced
same,RGC survival after ONC,[4],significantly improved
